# In article doi:10.1101/2025.03.14.643404, “A Bivalent Molecular Glue Linking Lysine Acetyltransferases to Oncogene-induced Cell Death” (bioRxiv, 2025):
# “Also recorded” adds a separate entry of the source.
# Key:
# [1] = system: primary human fibroblasts; experiment: Viability of primary human fibroblasts, 72 h; assay type: cell-based; details: compared with SUDHL5
# Procedure: Lymphoma and leukemia cells were grown in RPMI-1640 medium (ATCC 30–2001) supplemented with 10% fetal bovine serum (FBS) and 1% 100X Penicillin-Streptomycin (Gibco, 15140122) in incubators at 37°C with 5% carbon dioxide. KARPAS422 cells were obtained from Sigma (06101702) and DB and SUDHL5 were obtained from the American Tissue Culture Collection (ATCC). The Daudi cell line, originally from ATCC, was generously provided by R. Levy’s laboratory at Stanford University. Raji cells, also from ATCC, were a gift from J. Cochran’s laboratory at Stanford University. TOLEDO and K562 cells were originally obtained from ATCC and were kindly shared by A. Alizadeh’s laboratory at Stanford University. […]
# Thirty thousand cells were seeded in 100 μl of media per well of a 96-well plate and treated with drug for the indicated times and doses. A resazurin-based indicator of cell health (PrestoBlue; P50200, Thermo Fisher) was added for 1.5 h at 37°C, at which point the fluorescence ratio at 560/590 nm was recorded (Tecan Spark). The background fluorescence was subtracted, and the signal was normalized to DMSO-treated cells. IC50 measurements on cell lines were calculated using at least three biological replicates (separate cell passages). […]
# BRPF1 = target: T1, BRPF1 (Homo sapiens, UniProt P55201); experiment: BROMOscan binding to recombinant human bromodomains; details: 10 μM
# T1 construct: purchased BROMOscan (service)
# PUMA/BBC3 = experiment: Global proteome profiling in SUDHL5, PUMA/BBC3 abundance; assay type: cell-based, human; details: SUDHL5, 10 nM, 24 hours
# Procedure: SUDHL5 cells (6M cells in 6 mL RPMI-1640 media supplemented with 10% FBS and 1x pen-strep) were treated with 0.1% DMSO, 10 nM TCIP3, 10 nM Neg1, 10 nM Neg2, or 250 nM dCBP1 (1000x stocks in DMSO for final 0.1% DMSO concentration) in 3 biologically independent replicates. The cells were washed twice with TBS (50 mM Tris, pH 8.5, and 150 mM NaCl) and then stored at −80 °C until use.
# Lysis was performed by first thermally denaturing the samples in residual wash buffer for 5 min at 95 °C. Fresh Lysis Buffer (8 M urea, 150 mM NaCl, and 100 mM HEPES, pH 8.0, in MS-grade water) was then added, and the lysates were homogenized using needle ultrasonication and then normalized to 30 μg of 2 mg/mL by diluting with Lysis Buffer via a Bradford protein concentration assay (Bio-Rad 5000006) in technical duplicates. […]
# Samples were then desalted using SOLAμ SPE HRP Peptide Desalting columns (Thermo 60209–001) with a Positive Pressure Manifold and all MS-grade reagents. […] The samples were then reconstituted in 0.1% FA in water and then analyzed by LC-MS/MS (see below).
# The reconstituted desalted peptides were then analyzed using a nanoElute 2 UHPLC (Bruker Daltonics, Bremen, Germany) coupled to a timsTOF HT (Bruker Daltonics, Bremen, Germany) via a CaptiveSpray nano-electrospray source. […]
# p300^WT = p300^WT (Homo sapiens, UniProt Q09472); experiment: TR-FRET binary displacement assay, p300 WT bromodomain; assay type: binding; details: α = Kd binary/Kd ternary
# Procedure: Drugs were digitally dispensed (Tecan D300e) into protein-containing wells, and the plate was allowed to incubate in the dark for 1 hour at room temperature. Emission at 490 nm (terbium) and 520 nm (FITC) was measured on a PHERAstar FS plate reader (BMG Labtech) upon excitation with 337 nm. The ratio of signal at 520 nm to 490 nm was calculated and normalized to DMSO-treated protein.
# Chain of p300^WT (Q09472 1049-1156 limits assumed): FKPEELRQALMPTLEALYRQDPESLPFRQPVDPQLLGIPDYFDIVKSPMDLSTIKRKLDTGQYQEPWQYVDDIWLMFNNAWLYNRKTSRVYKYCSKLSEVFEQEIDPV
# T1 sequence (P55201 628-732 limits assumed): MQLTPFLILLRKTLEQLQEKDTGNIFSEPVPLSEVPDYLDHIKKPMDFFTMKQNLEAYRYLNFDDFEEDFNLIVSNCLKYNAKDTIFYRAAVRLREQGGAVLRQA
smiles,measurement,setting,value
CNC(=O)COc1cc2cc(Nc3nc(N4CCC(C(=O)N5CCN(CCC(=O)N6CCC(n7nc(N8CCCc9cc(-c%10cnn(C)c%10)c(C(F)F)cc98)c8c7CCN(C(=O)NC)C8)CC6)CC5)CC4)ncc3Cl)cc(OC)c2n(C)c1=O [TCIP3],cytotoxicity,[1],substantially reduced cytotoxicity; also recorded: without exhibiting toxicity
same,bromodomain selectivity,BRPF1,may also engage BRPF1 at high compound concentrations
same,PUMA/BBC3 log2(TCIP3 / DMSO fold change),PUMA/BBC3,0.72
same,cooperativity α,p300^WT,4.2
